Test results: patent US20250179032A1, “HETEROCYCLIC INHIBITORS OF GLUT9 FOR TREATMENT OF DISEASE” (HORIZON THERAPEUTICS IRELAND DAC, priority 2022, published 2025)

Biological target: T1, H. sapiens SLC2A9 variant 2 (GLUT9B) (Homo sapiens, UniProt Q9NRM0)
T1 sequence (Q9NRM0 1-511 isoform Q9NRM0-2): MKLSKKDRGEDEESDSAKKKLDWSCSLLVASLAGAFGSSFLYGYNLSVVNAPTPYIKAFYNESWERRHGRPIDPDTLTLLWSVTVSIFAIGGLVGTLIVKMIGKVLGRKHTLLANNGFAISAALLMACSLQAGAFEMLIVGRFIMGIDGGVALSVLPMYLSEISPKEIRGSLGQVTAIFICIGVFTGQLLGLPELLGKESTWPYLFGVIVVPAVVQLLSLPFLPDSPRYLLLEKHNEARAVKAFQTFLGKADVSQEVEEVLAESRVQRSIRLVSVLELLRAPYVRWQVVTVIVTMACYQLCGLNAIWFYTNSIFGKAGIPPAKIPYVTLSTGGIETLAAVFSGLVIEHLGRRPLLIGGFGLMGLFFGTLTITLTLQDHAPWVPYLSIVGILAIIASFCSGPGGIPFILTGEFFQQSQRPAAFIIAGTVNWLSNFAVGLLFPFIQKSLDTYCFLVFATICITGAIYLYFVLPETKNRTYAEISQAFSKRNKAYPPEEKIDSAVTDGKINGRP
Assay: GLUT9 functional assay: uric acid uptake in HEK293T cells, allantoin formation by MS/MS as proxy of GLUT9B inhibition
Format: cell-based
Settings: 15 minute assay; HEK293T cells stably expressing GLUT9B and transiently A. oryzae uricase; uric acid 0.3 mM, 37° C.; read-out: 15 min IC50
Procedure, shortened: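 Inhibition of GLUT9B-mediated urate uptake read as reduced allantoin formation, measured by MS/MS against allantoin standards in HEK293T matrix with log-logistic fitting. Stable GLUT9B HEK293T cells carrying transfected A. oryzae uricase were incubated 15 or 60 min at 37° C with uric acid at Km (0.3 mM), pH 7.4 gluconate buffer.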

IC50 [µM]	Structure (SMILES)
> 2	COCCCc1cnc(-c2cc(C(F)(F)F)c3occc3c2)c(N2CCC(C(=O)O)CC2)n1 [Compound 237, 1-(6-(3-methoxypropyl)-3-(7-(trifluoromethyl)benzofuran-5-yl)pyrazin-2-yl)piperidine-4-carboxylic acid]

Same assay, conditions: 60 minute assay; HEK293T cells stably expressing GLUT9B and transiently A. oryzae uricase; uric acid 0.3 mM, 37° C.; read-out: 60 min IC50

IC50 [µM]	Structure (SMILES)
> 2	COCCCc1cnc(-c2cnc3c(cnn3C)c2)c(N2CCC(C(=O)O)CC2)n1 [Compound 217, 1-(6-(3-methoxypropyl)-3-(1-methyl-1H-pyrazolo[3,4-b]pyridin-5-yl)pyrazin-2-yl)piperidine-4-carboxylic acid]
> 2	COCCCc1cnc(-c2cnc3nn(C)cc3c2)c(N2CCC(C(=O)O)CC2)n1 [Compound 218, 1-(6-(3-methoxypropyl)-3-(2-methyl-2H-pyrazolo[3,4-b]pyridin-5-yl)pyrazin-2-yl)piperidine-4-carboxylic acid]
> 2	COCCCc1cnc(-c2cnc3c(c2)ncn3C)c(N2CCC(C(=O)O)CC2)n1 [Compound 219, 1-(6-(3-methoxypropyl)-3-(3-methyl-3H-imidazo[4,5-b]pyridin-6-yl)pyrazin-2-yl)piperidine-4-carboxylic acid]
> 2	COCCCc1cnc(-c2ccnc3cc(OC)ccc23)c(N2CCC(C(=O)O)CC2)n1 [Compound 221, 1-(6-(3-methoxypropyl)-3-(7-methoxyquinolin-4-yl)pyrazin-2-yl)piperidine-4-carboxylic acid]
> 2	COCCCc1cnc(-c2ccnc3cc(F)c(OC)cc23)c(N2CCC(C(=O)O)CC2)n1 [Compound 222, 1-(3-(7-fluoro-6-methoxyquinolin-4-yl)-6-(3-methoxypropyl)pyrazin-2-yl)piperidine-4-carboxylic acid]
< 0.5	COCCCc1cnc(-c2cc3ccoc3c(F)c2F)c(N2CCC(C(=O)O)CC2)n1 [Compound 223, 1-(3-(6,7-difluorobenzofuran-5-yl)-6-(3-methoxypropyl)pyrazin-2-yl)piperidine-4-carboxylic acid]
< 0.5	COCCCc1cnc(-c2cc(Cl)c3occc3c2)c(N2CCC(C(=O)O)CC2)n1 [Compound 224, 1-(3-(7-chlorobenzofuran-5-yl)-6-(3-methoxypropyl)pyrazin-2-yl)piperidine-4-carboxylic acid]
< 0.5	COCCCc1cnc(-c2cc(F)c3sccc3c2)c(N2CCC(C(=O)O)CC2)n1 [Compound 225, 1-(3-(7-fluorobenzo[b]thiophen-5-yl)-6-(3-methoxypropyl)pyrazin-2-yl)piperidine-4-carboxylic acid]
< 0.5	COCCCc1cnc(-c2ccc3sccc3c2)c(N2CCC(C(=O)O)CC2)n1 [Compound 226, 1-(3-(benzo[b]thiophen-5-yl)-6-(3-methoxypropyl)pyrazin-2-yl)piperidine-4-carboxylic acid]
< 0.5	COCCCCc1cnc(-c2cc(F)c3occc3c2)c(N2CCC(C(=O)O)CC2)n1 [Compound 227, 1-(3-(7-fluorobenzofuran-5-yl)-6-(4-methoxybutyl)pyrazin-2-yl)piperidine-4-carboxylic acid]
< 0.5	COCCCCCc1cnc(-c2cc(F)c3occc3c2)c(N2CCC(C(=O)O)CC2)n1 [Compound 228, 1-(3-(7-fluorobenzofuran-5-yl)-6-(5-methoxypentyl)pyrazin-2-yl)piperidine-4-carboxylic acid]
< 0.5	COCCCc1cnc(-c2ccc(S(C)(=O)=O)cc2)c(N2CCC(C(=O)O)CC2)n1 [Compound 230, 1-(6-(3-methoxypropyl)-3-(4-(methylsulfonyl)phenyl)pyrazin-2-yl)piperidine-4-carboxylic acid]
< 0.5	COCCCc1cnc(-c2ccc3c(c2)COC3=O)c(N2CCC(C(=O)O)CC2)c1 [Compound 232, 1-(5-(3-methoxypropyl)-2-(1-oxo-1,3-dihydroisobenzofuran-5-yl)pyridin-3-yl)piperidine-4-carboxylic acid]
> 2	COCCCc1cnc(-c2ccc3c(c2)CCS3(=O)=O)c(N2CCC(C(=O)O)CC2)n1 [Compound 233, 1-(3-(1,1-dioxido-2,3-dihydrobenzo[b]thiophen-5-yl)-6-(3-methoxypropyl)pyrazin-2-yl)piperidine-4-carboxylic acid]
> 2	COCCCc1cnc(-c2ccc3c(c2)CCCS3(=O)=O)c(N2CCC(C(=O)O)CC2)n1 [Compound 234, 1-(3-(1,1-dioxidothiochroman-6-yl)-6-(3-methoxypropyl)pyrazin-2-yl)piperidine-4-carboxylic acid]
0.5 to 2	COCCCc1cnc(-c2cc(OC(F)(F)F)c3occc3c2)c(N2CCC(C(=O)O)CC2)n1 [Compound 238, 1-(6-(3-methoxypropyl)-3-(7-(trifluoromethoxy)benzofuran-5-yl)pyrazin-2-yl)piperidine-4-carboxylic acid]

IC50 [µM]	Structure (SMILES)
< 0.5	COCCCc1cnc(-c2cc(C)c3occc3c2)c(N2CCC(C(=O)O)CC2)n1 [Compound 239, 1-(6-(3-methoxypropyl)-3-(7-methylbenzofuran-5-yl)pyrazin-2-yl)piperidine-4-carboxylic acid]
< 0.5	COCCCc1cnc(-c2cc(C(F)F)c3occc3c2)c(N2CCC(C(=O)O)CC2)n1 [Compound 240, 1-(3-(7-(difluoromethyl)benzofuran-5-yl)-6-(3-methoxypropyl)pyrazin-2-yl)piperidine-4-carboxylic acid]
> 2	COCCCc1cnc(-c2ccc3occc3n2)c(N2CCC(C(=O)O)CC2)n1 [Compound 241, 1-(3-(furo[3,2-b]pyridin-5-yl)-6-(3-methoxypropyl)pyrazin-2-yl)piperidine-4-carboxylic acid]
0.5 to 2	COCCCc1cnc(-c2ccc3occ(C)c3c2)c(N2CCC(C(=O)O)CC2)n1 [Compound 242, 1-(6-(3-methoxypropyl)-3-(3-methylbenzofuran-5-yl)pyrazin-2-yl)piperidine-4-carboxylic acid]
< 0.5	COCCCc1cnc(-c2cc(F)c3occc3c2)c(N2CCCC(C(=O)O)CC2)n1 (stereo not drawn) [Compound 243, 1-(3-(7-fluorobenzofuran-5-yl)-6-(3-methoxypropyl)pyrazin-2-yl)azepane-4-carboxylic acid]
< 0.5	COCCCc1cnc(-c2cc(F)c3c(c2)OCO3)c(N2CCCC(C(=O)O)CC2)n1 (stereo not drawn) [Compound 244, 1-(3-(7-fluorobenzo[d][1,3]dioxol-5-yl)-6-(3-methoxypropyl)pyrazin-2-yl)azepane-4-carboxylic acid]
< 0.5	COCCCc1cnc(-c2cc(F)c3occc3c2)c(N2CCCC(C(=O)O)CC2)c1 (stereo not drawn) [Compound 245, 1-(2-(7-Fluorobenzofuran-5-yl)-5-(3-Methoxypropyl)Pyridin-3-yl)azepane-4-carboxylic acid]
< 0.5	COCCCc1cnc(-c2cc(F)c3c(c2)OCO3)c(N2CCCC(C(=O)O)CC2)c1 (stereo not drawn) [Compound 246, 1-(2-(7-fluorobenzo[d][1,3]dioxol-5-yl)-5-(3-methoxypropyl)pyridin-3-yl)azepane-4-carboxylic acid]
0.5 to 2	COCCCc1cnc(-c2ccc3c(c2)OCO3)c(N2CCC3(CC(C(=O)O)C3)C2)c1 (stereo not drawn) [Compound 247, 6-(2-(benzo[d][1,3]dioxol-5-yl)-5-(3-methoxypropyl)pyridin-3-yl)-6-azaspiro[3.4]octane-2-carboxylic acid]
> 2	COCCCc1cnc(-c2ccc3c(c2)OCO3)c(N2CC3(CC(C(=O)O)CO3)C2)c1 (stereo not drawn) [Compound 249, 2-(2-(benzo[d][1,3]dioxol-5-yl)-5-(3-methoxypropyl)pyridin-3-yl)-5-oxa-2-azaspiro[3.4]octane-7-carboxylic acid]
> 2	COCCCc1cnc(-c2ccc3c(c2)OCO3)c(N2CC3(CC(C(=O)O)C3)C2)c1 [Compound 250, 2-(2-(benzo[d][1,3]dioxol-5-yl)-5-(3-methoxypropyl)pyridin-3-yl)-2-azaspiro[3.3]heptane-6-carboxylic acid]
> 2	COCCCc1cnc(-c2ccc3c(c2)OCO3)c(N2CC(C(=O)O)C2)c1 [Compound 251, 1-(2-(benzo[d][1,3]dioxol-5-yl)-5-(3-methoxypropyl)pyridin-3-yl)azetidine-3-carboxylic acid]
> 2	COCCCc1cnc(-c2ccc3c(c2)OCO3)c(N2CC(OC)(C(=O)O)C2)c1 [Compound 252, 1-(2-(benzo[d][1,3]dioxol-5-yl)-5-(3-methoxypropyl)pyridin-3-yl)-3-methoxyazetidine-3-carboxylic acid]
< 0.5	COCCCc1cnc(-c2ccc3occ(Cl)c3c2)c(N2CCC(C(=O)O)CC2)n1 [Compound 253, 1-(3-(3-chlorobenzofuran-5-yl)-6-(3-methoxypropyl)pyrazin-2-yl)piperidine-4-carboxylic acid]
< 0.5	COCCCc1cnc(-c2ccc(SC)cc2)c(N2CCC(C(=O)O)CC2)n1 [Compound 254, 1-(6-(3-methoxypropyl)-3-(4-(methylthio)phenyl)pyrazin-2-yl)piperidine-4-carboxylic acid]
0.5 to 2	COCCCc1cnc(-c2ccc(F)c(F)c2)c(N2CCC(C(=O)O)CC2)n1 [Compound 255, 1-(3-(3,4-difluorophenyl)-6-(3-methoxypropyl)pyrazin-2-yl)piperidine-4-carboxylic acid]
